These are literature values, as cited in patent US20260007780A1, “LIQUID VEHICLE FORMULATION FOR ENTEROGRAPHY EXAMINATION” (priority 2008, published 2026).

Molecules are shown by their SMILES.

In the case of `CC(=O)Nc1c(I)c(NC(C)=O)c(I)c(C(=O)O)c1I` [Diatrizoic acid, diatrizoic acid], the solubility in water entry is “practically insoluble in water”.
